Consider one molecule from patent US20140228287A1, “1-[(3-CYANO-PYRIDIN-2-YL)METHYL]-3-METHYL-7-(2-BUTYN-1-YL)-8-[3-(R)-AMINO-PIPERIDIN-1-YL]-AXANTHINE FOR THE TREATMENT OF A METABOLIC DISORDER OF A PREDOMINANTLY CARNIVOROUS NON-HUMAN ANIMAL” (BOEHRINGER INGELHEIM VETMEDICA GMBH, priority 2010, published 2014).

For data set [1], the system named is GLP-1. The experiment in a line: OGTT in normal cats after 9 mg per cat: GLP-1 concentrations. In kind it is in vivo. Particulars: for GLP-1 concentration: 9 mg/cat oral, OGTT beginning 1 h after. Here is the method:
Cats were fasted overnight and then lightly tranquilized with tiletamine/zolazepam (2 mg per cat intravenously (Fort Dodge Animal Health, Ft. Dodge, Iowa, USA). Glucose was administered via gastric tube (2 g/kg body weight; 80% w/v) after a baseline blood sample had been obtained. […]
Glucose measurements were performed using a colorimetric glucose oxidase method (DCL, Oxford, Conn., USA). Plasma insulin was measured as described in Hoenig et al. (1989), J. Endocrinol., vol. 121, p. 249-251. The concentrations of active GLP-1 were measured with an ELISA kit from Linco (St. Charles, Mo., USA). All samples were tested in duplicate. […] The interassay coefficient of variation (CV) was 7.6%, and the intra-assay CV was 12.1%.
An OGTT like in Example 11 was performed in […] beginning 1 h after oral administration of 9 mg 1-[(3-cyano-pyridin-2-yl)methyl]-3-methyl-7-(2-butyn-1-yl)-8-[3-(R)-amino-piperidin-1-yl]-xanthine monohydrochloride or placebo (2 groups with 6 animals each; 3 male and 3 females per group).

Data set [2] is described as follows: Multiple dose study (14 days) in cats: adverse events. In kind it is in vivo, cat. Particulars: 1, 3, 9 mg/animal once daily oral for 14 days. As for the experimental part:
The aim of this study was to investigate the PK/PD effects of 1-[(3-cyano-pyridin-2-yl)methyl]-3-methyl-7-(2-butyn-1-yl)-8-[3-(R)-amino-piperidin-1-yl]-xanthine in cats following repeated oral administration of 0, 1, 3 and 9 mg/animal over 14 days corresponding to a dose of 0, 0.25, 0.75 and 2.25 mg/kg body weight for a cat weighing 4 kg. (Dosages were based on the free base: 1 mg 1-[(3-cyano-pyridin-2-yl)methyl]-3-methyl-7-(2-butyn-1-yl)-8-[3-(R)-amino-piperidin-1-yl]-xanthine monohydrochloride corresponds to 0.923 mg 1-[(3-cyano-pyridin-2-yl)methyl]-3-methyl-7-(2-butyn-1-yl)-8-[3-(R)-amino-piperidin-1-yl]-xanthine free base).
For this purpose, twelve clinically healthy male adult domestic short hair cats with a body weight range of 3.5-4.8 kg were used. The animals were randomly allocated to 4 groups, 3 animals per group. All animals were treated once daily orally for 14 days (i.e. on days 0-13). The test article was administered via capsules at doses of 1 (group II), 3 (group III) or 9 (group IV) mg of the monohydrochloride compound per animal; group I received placebo serving as controls. Blood samples for PK and PD (DPP IV activity) investigations were drawn at 0 h (i.e. prior to the 1st treatment), 0.5, 1, 2, 4, 8, 12 and 24 h after the 1st treatment as well as 24 h after the 3rd, 5th, 7th, 9th, 11th and 13th treatment and 0.5, 1, 2, 4, 8, 12 and 24 h after the 14th treatment.

Data set [3] addresses DPP 8 (Homo sapiens, UniProt Q6V1X1). Kind of data set: In vitro selectivity, human proteases: DPP 8. In kind it is biochemical. The source says: (§1) In order to determine the in vitro selectivity of 1-[(3-cyano-pyridin-2-yl)methyl]-3-methyl-7-(2-butyn-1-yl)-8-[3-(R)-amino-piperidin-1-yl]-xanthine, the ability of this compound to inhibit a number of human proteases was investigated as described in Thomas et al. (2008), J. Pharmacol. Exp. Ther., vol. 325, p. 175-182, chapter In vitro DPP-4 Inhibition Assay, p. 176.

The target of data set [4] is Prolyl-Oligo Peptidase (or Prolyl Endopeptidase) (Homo sapiens, UniProt P48147). Kind of data set: In vitro selectivity, human proteases: Prolyl-Oligo Peptidase. In kind it is biochemical. To be noted: up to 100 μM.
Chain of Prolyl-Oligo Peptidase (or Prolyl Endopeptidase) (P48147 whole entry): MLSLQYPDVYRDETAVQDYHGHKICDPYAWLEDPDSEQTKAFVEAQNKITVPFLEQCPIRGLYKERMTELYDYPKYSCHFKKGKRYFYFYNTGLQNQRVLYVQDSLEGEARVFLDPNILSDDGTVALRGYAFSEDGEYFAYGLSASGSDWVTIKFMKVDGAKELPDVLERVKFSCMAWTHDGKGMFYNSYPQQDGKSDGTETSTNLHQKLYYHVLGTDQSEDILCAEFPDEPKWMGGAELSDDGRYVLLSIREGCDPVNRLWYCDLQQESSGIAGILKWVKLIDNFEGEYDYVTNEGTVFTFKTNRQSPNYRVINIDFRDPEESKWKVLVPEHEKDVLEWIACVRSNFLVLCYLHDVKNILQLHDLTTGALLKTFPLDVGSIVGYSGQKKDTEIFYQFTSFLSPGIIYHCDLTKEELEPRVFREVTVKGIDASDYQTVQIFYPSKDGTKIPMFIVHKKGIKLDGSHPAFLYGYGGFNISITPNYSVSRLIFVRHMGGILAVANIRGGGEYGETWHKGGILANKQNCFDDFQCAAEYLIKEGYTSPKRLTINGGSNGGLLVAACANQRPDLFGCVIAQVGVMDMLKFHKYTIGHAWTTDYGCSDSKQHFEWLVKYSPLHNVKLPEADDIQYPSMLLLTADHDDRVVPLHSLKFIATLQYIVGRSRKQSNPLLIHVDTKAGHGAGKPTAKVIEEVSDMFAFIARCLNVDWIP
Description: as §1

Data set [5] concerns the target M1 muscarinic receptors (Homo sapiens, UniProt P11229). Kind of data set: Selectivity panel, radio ligand binding assay: M1. To be noted: only interaction observed in full panel of receptors, ion channels and enzymes. As for the experimental part: In selectivity assays as described in Dörje et al. (1991), J. Pharmacol. Exp. Ther., vol. 256, p. 727-733, chapter Radio ligand binding studies, p. 729, using the full panel of receptors, ion channels and enzymes, the only interaction observed with 1-[(3-cyano-pyridin-2-yl)methyl]-3-methyl-7-(2-butyn-1-yl)-8-[3-(R)-amino-piperidin-1-yl]-xanthine monohydrochloride was with M1 muscarinic receptors, with IC50 in a binding assay of 3 μM.

The target in data set [6] is T1, DPP IV (Felis catus, UniProt Q9N2I7).
T1 construct: Blood samples for the determination of this compound and DPP IV activity were collected; from tissue; host or cells: plasma of domestic short hair / purpose-bred cats dosed orally
T1 sequence (Q9N2I7 38-765 limits assumed): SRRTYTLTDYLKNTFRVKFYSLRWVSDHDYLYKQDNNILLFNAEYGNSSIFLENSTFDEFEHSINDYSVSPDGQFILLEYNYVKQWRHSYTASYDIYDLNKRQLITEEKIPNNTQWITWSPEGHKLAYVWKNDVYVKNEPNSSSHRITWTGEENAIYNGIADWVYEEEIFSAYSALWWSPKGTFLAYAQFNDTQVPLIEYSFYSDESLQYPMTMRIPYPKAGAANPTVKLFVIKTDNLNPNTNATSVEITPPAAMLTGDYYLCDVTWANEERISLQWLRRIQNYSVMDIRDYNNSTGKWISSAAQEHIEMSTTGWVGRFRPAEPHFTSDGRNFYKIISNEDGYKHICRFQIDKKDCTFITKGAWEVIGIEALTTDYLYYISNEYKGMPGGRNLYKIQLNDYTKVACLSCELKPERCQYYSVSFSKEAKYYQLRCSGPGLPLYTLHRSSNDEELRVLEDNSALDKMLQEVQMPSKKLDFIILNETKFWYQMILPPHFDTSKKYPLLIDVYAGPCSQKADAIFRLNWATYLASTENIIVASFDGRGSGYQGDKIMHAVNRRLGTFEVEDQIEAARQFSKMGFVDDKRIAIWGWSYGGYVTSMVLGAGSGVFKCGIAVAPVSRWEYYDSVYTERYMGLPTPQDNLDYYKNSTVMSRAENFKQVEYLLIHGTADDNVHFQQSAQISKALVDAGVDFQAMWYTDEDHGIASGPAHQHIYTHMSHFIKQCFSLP
The experiment in a line: PK/PD studies in cats, summary. It counts as in vivo, cat. Here is the method: PK/PD studies to measure the effect of different doses of 1-[(3-cyano-pyridin-2-yl)methyl]-3-methyl-7-(2-butyn-1-yl)-8-[3-(R)-amino-piperidin-1-yl]-xanthine CL on DPP IV activity, are presented in the experimental part of this application. […] Larger degrees of DPP IV inhibition, e.g. more than 80% in 24 h can be reached by increased doses. The duration of DPP IV inhibition can be prolonged with higher dosages.

The target of data set [7] is DPP IV (Homo sapiens, UniProt P27487). The experiment in a line: In vitro DPP IV inhibition. In kind it is biochemical. To be noted: for IC50: in vitro. As for the experimental part: Studies were also conducted to assess the inhibitory effect of this compound on plasma DPP IV activity in several species.
Chain of DPP IV (Homo sapiens, UniProt P27487) (P27487 whole entry, species assumed): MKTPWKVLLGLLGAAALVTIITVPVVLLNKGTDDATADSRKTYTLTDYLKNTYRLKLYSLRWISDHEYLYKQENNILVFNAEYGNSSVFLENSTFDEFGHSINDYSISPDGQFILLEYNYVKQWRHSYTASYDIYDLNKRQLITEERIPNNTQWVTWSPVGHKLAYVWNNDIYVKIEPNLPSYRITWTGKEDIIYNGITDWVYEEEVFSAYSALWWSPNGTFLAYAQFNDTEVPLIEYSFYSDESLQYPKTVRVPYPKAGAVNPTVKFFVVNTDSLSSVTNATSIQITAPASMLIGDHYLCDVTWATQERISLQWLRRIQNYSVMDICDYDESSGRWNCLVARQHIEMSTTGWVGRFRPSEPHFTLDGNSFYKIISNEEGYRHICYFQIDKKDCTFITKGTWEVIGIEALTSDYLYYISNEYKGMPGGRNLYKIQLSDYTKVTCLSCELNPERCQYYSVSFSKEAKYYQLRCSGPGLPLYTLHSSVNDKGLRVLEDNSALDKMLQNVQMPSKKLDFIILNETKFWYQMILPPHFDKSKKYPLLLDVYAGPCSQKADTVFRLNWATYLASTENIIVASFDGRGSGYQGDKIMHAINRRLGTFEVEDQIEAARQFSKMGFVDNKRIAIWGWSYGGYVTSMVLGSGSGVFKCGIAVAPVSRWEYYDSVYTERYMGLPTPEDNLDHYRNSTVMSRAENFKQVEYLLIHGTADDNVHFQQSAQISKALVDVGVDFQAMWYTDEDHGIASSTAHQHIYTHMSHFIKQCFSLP

Counter-ions that a name gives are not always drawn.

Chain of M1 muscarinic receptors (P11229 whole entry): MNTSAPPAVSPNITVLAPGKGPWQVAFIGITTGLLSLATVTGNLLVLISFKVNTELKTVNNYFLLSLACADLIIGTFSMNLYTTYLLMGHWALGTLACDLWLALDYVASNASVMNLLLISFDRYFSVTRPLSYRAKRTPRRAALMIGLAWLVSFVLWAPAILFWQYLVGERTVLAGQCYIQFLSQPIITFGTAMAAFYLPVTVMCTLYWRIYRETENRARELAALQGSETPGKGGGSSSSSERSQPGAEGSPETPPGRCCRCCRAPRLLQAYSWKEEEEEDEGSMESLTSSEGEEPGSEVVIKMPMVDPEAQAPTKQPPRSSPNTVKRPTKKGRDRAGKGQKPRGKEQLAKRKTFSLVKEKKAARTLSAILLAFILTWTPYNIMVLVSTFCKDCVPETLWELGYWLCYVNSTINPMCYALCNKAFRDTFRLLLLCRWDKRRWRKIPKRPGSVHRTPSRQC
Chain of DPP 8 (Q6V1X1 whole entry): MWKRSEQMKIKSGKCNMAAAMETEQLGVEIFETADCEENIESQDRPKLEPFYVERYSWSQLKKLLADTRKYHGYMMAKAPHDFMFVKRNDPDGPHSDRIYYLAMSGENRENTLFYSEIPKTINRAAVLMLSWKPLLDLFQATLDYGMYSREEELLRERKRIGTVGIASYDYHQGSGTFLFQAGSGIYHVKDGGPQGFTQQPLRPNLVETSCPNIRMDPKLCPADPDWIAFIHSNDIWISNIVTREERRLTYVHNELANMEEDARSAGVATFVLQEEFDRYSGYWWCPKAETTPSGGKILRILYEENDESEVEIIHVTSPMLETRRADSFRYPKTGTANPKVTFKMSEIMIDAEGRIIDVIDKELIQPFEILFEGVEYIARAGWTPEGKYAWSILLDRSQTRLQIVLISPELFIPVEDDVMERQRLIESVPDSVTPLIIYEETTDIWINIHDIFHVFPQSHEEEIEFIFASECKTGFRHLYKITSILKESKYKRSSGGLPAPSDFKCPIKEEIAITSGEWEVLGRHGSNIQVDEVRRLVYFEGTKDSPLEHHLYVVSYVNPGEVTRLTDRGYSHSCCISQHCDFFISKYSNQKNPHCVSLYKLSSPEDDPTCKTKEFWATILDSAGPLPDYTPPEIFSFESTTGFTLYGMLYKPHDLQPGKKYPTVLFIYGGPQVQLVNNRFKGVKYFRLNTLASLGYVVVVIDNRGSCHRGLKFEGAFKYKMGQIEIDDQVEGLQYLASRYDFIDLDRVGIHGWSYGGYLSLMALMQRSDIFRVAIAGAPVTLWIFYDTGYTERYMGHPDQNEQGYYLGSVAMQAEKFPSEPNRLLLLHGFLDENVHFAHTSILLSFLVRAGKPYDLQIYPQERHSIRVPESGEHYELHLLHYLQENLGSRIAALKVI

For `CC#CCn1c(N2CCC[C@@H](N)C2)nc2c1c(=O)n(Cc1ncccc1C#N)c(=O)n2C` [1-[(3-cyano-pyridin-2-yl)methyl]-3-methyl-7-(2-butyn-1-yl)-8-[3-(R)-amino-piperidin-1-yl]-xanthine monohydrochloride], the “GLP-1 increase compared to Placebo” value in data set [1] (9 mg per cat oral, OGTT in normal cats) was “significantly higher compared to Placebo”. Besides, the GLP-1 concentration in data set [1] (60 min after drug administration) was 3.70 pmol/L; in data set [1] (65 min after drug administration), 3.92 pmol/L; in data set [1] (70 min after drug administration), 4.54 pmol/L; in data set [1] (75 min after drug administration) it was 7.28 pmol/L; in data set [1] (90 min after drug administration), 16.31 pmol/L; in data set [1] (120 min after drug administration), 26.93 pmol/L. Further, the GLP-1 concentration in data set [1] (180 min after drug administration) is 23.25 pmol/L; in data set [1] (240 min after drug administration), 14.45 pmol/L; in data set [1] (300 min after drug administration) it was 9.60 pmol/L; in data set [1] (360 min after drug administration), 6.04 pmol/L. In addition, in data set [2], the adverse events entry was “No adverse events specifically attributable to the test article were noted”. Also, the IC50 (as a rule, the concentration that gives 50% inhibition) is 95000 nM in data set [3], 3000 nM in data set [5], roughly 0.18 nM in data set [7] (GLP-1 as substrate) and roughly 1 nM in data set [7] (dipeptide artificial substrate). Moreover, the “inhibitory effect on Prolyl-Oligo Peptidase” value in data set [4] is reported as “did not exert any inhibitory effect”. The “doses leading to a significant DPP IV inhibition” value in data set [6] is reported as “more than 0.1 mg/kg”. The “DPP IV inhibition in 24 h” value in data set [6] (achieved with 1 to 3 mg/kg (˜3 to 9 mg per cat, or 4 to 30 nmol/l in cat plasma)) is “more than 70%”. Further, the “mode of DPP IV inhibition” value in data set [7] (mechanistic studies) is “competitive and reversible inhibitor”.
